Data published in paper PMC12518634, “The noncanonical function of liver-type phosphofructokinase potentiates the efficacy of HDAC inhibitors in cancer” (Signal Transduction and Targeted Therapy, 2025).
Where no end group is shown, it is not given here.

Assays:
[1] = test system: TFK1 cells; test: Cell viability assay (CellTiter-Glo, 72 h), GI50; assay type: cell-based, human; conditions: TFK1 sgPFKL-1 and sgPFKL-2 versus sgNC, Supplementary Fig. 2d
Protocol: Cell viability was assessed using the CellTiter-Glo luminescent cell viability assay (Vazyme, DD1101) following the manufacturer’s instructions. Briefly, 5000 cells per well were seeded into a 96-well white bottom permeable plate. Different concentrations of drugs were added to each well. After 72 h of treatment, a mixture of CellTier reagent and serum-free culture medium was prepared at a 1:1 ratio, and 100 μL of the mixture was added to each well. After incubation at 37 °C for 15 min, the luminescence was measured using a microplate reader (Synergy H1, Biotek). All the experiments were conducted in triplicate. Cell viability (relative luminescence) was defined as the luminescence of the drug treatment relative to that of the vehicle control.

[2] = test system: 1405R3; test: High-throughput drug screen, CellTiter-Glo viability, 72 h; assay type: cell-based, human; parameters: AUC: scale not given here; conditions: 1405R3 DSRT analysis; for AUC: area under the dose-response curve; for MIN: lower asymptote of fitted dose-response curve
How it was run: (§1)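 Cholangiocarcinoma cells were seeded at 3000/well in 384-well plates and dosed after 24 h. Drugs were tested at 10, 1, 0.1, 0.01 and 0.001 μM in duplicate for 72 h, with viability read by CellTiter-Glo luminescence.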

[3] = test system: 783C-6; test: as above; assay type: cell-based, human; parameters: AUC: scale not given here; conditions: for AUC: area under the dose-response curve
How it was run: as §1

[4] = test system: HuCCT1 cells; test: Confocal imaging of peptide infiltration into cells; assay type: in vitro ADME, human; conditions: confocal images, Supplementary Fig. 13b
Excerpt: (§2) Supplementary Fig. 13. […] Scale bars, 100 μm. i Body weight of each group of HuCCT1 xenografts at the end of treatment is plotted (n = 6 mice per group, two-way ANOVA). j The tumor weight of each group of HuCCT1 xenografts at the end of treatment is plotted (n = 6 mice per group, Student’s t test).

[5] = test system: HuCCT1 cells; test: CCK-8 cytotoxicity of the peptides; assay type: cell-based, human; conditions: CCK-8 assay, n=3 biological replicates, Supplementary Fig. 13c
Protocol: The cell proliferation rates were determined with a CCK-8 Cell Counting Kit (Vazyme, A311) in strict accordance with the provided protocol. The colony formation capacity was assessed by plating the cells in 6-well plates (5000 cells/well), followed by drug treatment over a 7-day period. Finally, the resulting colonies were subjected to crystal violet staining for subsequent quantification.
as §2

| Molecule | effect of PFKL knockout on drug efficacy (cell viability) [1] | AUC [2] | MIN [2] | cellular permeability [4] | cytotoxicity [5] | other results |
| --- | --- | --- | --- | --- | --- | --- |
| C[C@@H]1NC(=O)[C@H]2CCCN2C(=O)[C@H](CCCCCC(=O)[C@@H]2CO2)NC(=O)[C@@H](C)NC1=O [HC-Toxin] | significantly inhibited drug efficacy |  |  |  |  |  |
| CCC(=O)CCCCC[C@@H]1NC(=O)[C@H]2CCCCN2C(=O)[C@H]([C@@H](C)CC)NC(=O)[C@H](Cc2cn(OC)c3ccccc23)NC1=O [apicidin] | significantly inhibited drug efficacy |  |  |  |  |  |
| O=C(/C=C/c1cccc(S(=O)(=O)Nc2ccccc2)c1)NO [belinostat, reference compound] | significantly inhibited drug efficacy | 121.5 | 0 |  |  | DSS ([2]; DSS): 12.9; EC50 ([2]; Homo sapiens, fitted dose-response curve, Min.Conc.tested 1, Max.Conc.tested 10000, CellTiter-Glo, 72 h, read-out: EC50): 684 nM; DSS ([3]; 783C-6 DSRT analysis, DSS calculated from the dose-response curve): 19; MIN ([3]; 783C-6 DSRT analysis, MIN of the fitted dose-response curve): 0.2; AUC ([3]; 783C-6 DSRT analysis): 173.8; EC50 ([3]; Homo sapiens, 72 h, read-out: EC50): 195 nM |
| O=C(CCCCCCC(=O)Nc1ccccc1)NO [vorinostat, reference compound] | significantly inhibited drug efficacy | 87 | 6.1 |  |  | DSS ([2]; drug sensitivity score): 10; DSS ([3]; 783C-6 cells, DSS of DSRT analysis): 11.5; AUC ([3]; 783C-6 cells): 104.1; MIN ([3]; 783C-6 cells, minimum of dose-response curve): 3.6 |
| CDRIKQSASGKRRVFIVETMRRRRRRRR [∆562-R8] |  |  |  | good cellular permeability | low cytotoxicity |  |
| CDRIKQSASGTKRRVFIVETMRRRRRRRR [PFKL-552-572-R8] |  |  |  | good cellular permeability | low cytotoxicity |  |
